Source: patent US10947271B2, “Antibacterial agents” (THE UNIVERSITY OF QUEENSLAND, priority 2014, dated 2021)

Key:
MRSA (Strain ATCC 43300) = test: Murine thigh infection model (MRSA); assay type: in vivo, Staphylococcus aureus; conditions: neutropenic CD1 mice
[1] = system: Streptococcus pneumoniae MDR ATCC 700677; test: MIC assay, S. pneumoniae MDR ATCC 700677; assay type: cell-based; conditions: 24 h incubation, visual reading
In short: (§1)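 Overnight MHB cultures at 37° C were diluted 40-fold and grown 2-3 hrs to mid-log, then added at 5×10e5 CFU/mL to twofold compound dilutions (8 to 0.003 μg/ml). Plates were incubated 24 h at 37° C and MIC scored by eye.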

[2] = system: Enterococcus faecium MDR Van A ATCC 51559; test: MIC assay, E. faecium MDR Van A ATCC 51559; assay type: cell-based; conditions: 24 h incubation, visual reading
In short: as §1

[3] = system: Staphylococcus aureus MRSA ATCC 43300; test: MIC assay, S. aureus MRSA ATCC 43300; assay type: cell-based; conditions: 24 h incubation, visual reading
In short: as §1

[4] = Stability of compounds in human plasma; conditions: 50% human plasma/PBS pH 7.4, 37° C.
Method: Briefly test compounds (20 μM) were prepared from a 1 mM stock solution. The human plasma sample (200 μl) was diluted with 160 μl phosphate-buffer saline (PBS, pH 7.4) to a concentration of 50% v/v before use. Solutions were then vortexed and placed on a 37° C. shaker and shaken gently for 10 minutes. 40 μl of the test compounds were then added to the plasma sample and vortexed. For the reaction time t=0 hour, 50 μl of sample was immediately transferred into an eppendorf tube and quenched with 150 μl cold acetonitrile. The remaining plasma solution was incubated and shaken at 37° C. Other samples were collected at time points of 0, 1, 3, 6 and 24 hours whereby 50 μl aliquots were removed and quenched with 150 μl cold acetonitrile. All samples were placed in a 4° C. fridge for 10 minutes then centrifuged at 3000 rpm for 15 minutes. The supernatant (100 μl) was transferred to a glass vial insert for LCMS analysis. The percentage of test compounds remaining at the individual time points relative to sample at time point 0 hour were reported.
Plasma: Human Plasma (Pooled Normal Human Plasma Heparin Anticoagulant 50 mL (IPLA-2 N-04 lot IR09-1001, originally from Innovative Research and imported by BioCore).
All compounds in 100% water (40 μL in 400 μL assay volume equivalent […])
Compounds: 40 μL of the vancomycin derivative solution was added to 160 μL of PBS (pH 7.4) respectively in an Eppendorf tube. 600 μL of cold acetonitrile was added, the tube vortexed and transferred to a glass vial for LC-MS analysis.
Eucatropine: 200 μL of plasma and 190 μL of buffer were vortexed, shaken at 37° C. for 10 minutes. 10 μL of eucatropine solution was then added and the tube vortexed. A 50 μL aliquot was immediately transferred to an Eppendorf tube, 150 μL of cold acetonitrile added and the tube transferred to a 4° C. fridge for 10 minutes. The remaining plasma solution was then transferred to the incubator and shaken at 37° C. The tube was retrieved from the fridge, centrifuged at 3000 rpm for 15 min and 100 μL of supernatant transferred to a glass vial insert for LC-MS analysis. 50 μL aliquots were processed as above at 1, […], 3, 6 and 24 hours and 5 μL was injected into triple quad MS system for analysis. Vancomycin derivatives: 200 μL of plasma and 160 μL of buffer were vortexed and shaken at 37° C. for 10 minutes. 40 μL of compound was then added and the sample was processed as above.

[5] = single subcutaneous dose 25 mg/kg
[6] = single subcutaneous dose 10 mg/kg

SMILES	Average Reduction log Δcfu MRSA/thigh after 26 h (MRSA (Strain ATCC 43300); single subcutaneous dose 50 mg/kg)	Minimum Inhibitory Concentration (MIC) S. pneumoniae ATCC 700677 [1]	Minimum Inhibitory Concentration (MIC) E. faecium ATCC51559 [2]	Minimum Inhibitory Concentration (MIC) Staph. aureus ATCC43300 [3]	% compound remaining after incubation in 50% human plasma ([4]; 0 h (reference time point))	% compound remaining after incubation in 50% human plasma ([4]; 1 h)	% compound remaining after incubation in 50% human plasma ([4]; 6 h)	% compound remaining after incubation in 50% human plasma ([4]; 24 h)	Average Reduction log Δcfu MRSA/thigh after 26 h (MRSA (Strain ATCC 43300); [5])	Average Reduction log Δcfu MRSA/thigh after 26 h (MRSA (Strain ATCC 43300); single subcutaneous dose 200 mg/kg)	% compound remaining after incubation in 50% human plasma ([4]; 3 h)	Average Reduction log Δcfu MRSA/thigh after 26 h (MRSA (Strain ATCC 43300); [6])
CNC(CC(C)C)C(=O)NC1C(=O)NC(CC(N)=O)C(=O)NC2C(=O)NC3C(=O)NC(C(=O)NC(C(=O)NCCCCC(NC(=O)C(CCCCN)NC(=O)C(CCCCN)NC(=O)c4ccc(Oc5ccccc5)cc4)C(=O)O)c4cc(O)cc(O)c4-c4cc3ccc4O)C(O)c3ccc(c(Cl)c3)Oc3cc2cc(c3OC2OC(CO)C(O)C(O)C2OC2CC(C)(N)C(O)C(C)O2)Oc2ccc(cc2Cl)C1O (stereo not drawn) [MCC_000214, (4-PhO-PhCO)-KK-K(Vanc)-OH]	xxx (xxx = 4-6)	xxx (xxx = 0.1-<1)	x (x = >4)	xxx (xxx = 0.1-<1)	100%	101%	107%	111%				
CN[C@H](CC(C)C)C(=O)N[C@H]1C(=O)N[C@@H](CC(N)=O)C(=O)N[C@H]2C(=O)N[C@H]3C(=O)NC(C(=O)N[C@H](C(=O)O)c4cc(O)cc(O)c4-c4cc3ccc4O)[C@H](O)c3ccc(c(Cl)c3)Oc3cc2cc(c3OC2OC(CO)C(O)C(O)C2OC2CC(C)(N)C(O)C(C)O2)Oc2ccc(cc2Cl)[C@H]1O (stereo partly drawn) [MCC_000095, vancomycin, reference compound]					100%	176%	149%	65%	x (x = 0-2)	xxx (xxx = 4-6)	145%	
CCCCCCCCCCC(=O)N[C@@H](CCCCN)C(=O)N[C@@H](CCCCNC(=O)[C@H]1NC(=O)[C@H]2NC(=O)[C@H](NC(=O)[C@@H]3NC(=O)[C@H](CC(N)=O)NC(=O)[C@H](NC(=O)[C@@H](CC(C)C)NC)[C@H](O)c4ccc(c(Cl)c4)Oc4cc3cc(c4O[C@@H]3O[C@H](CO)[C@@H](O)[C@H](O)[C@H]3O[C@H]3C[C@](C)(N)[C@H](O)[C@H](C)O3)Oc3ccc(cc3Cl)[C@H]2O)c2ccc(O)c(c2)-c2c(O)cc(O)cc21)C(=O)O [MCC_000080, nC10CO-K-K(Vanc)-OH]		xxx (xxx = 0.1-<1)	x (x = >4)	xxx (xxx = 0.1-<1)	100%	101%	100%	89%	xxxx (xxxx = >6)		101%	xxx (xxx = 4-6)
CCCCCCCCCC(=O)N[C@@H](CCCCN)C(=O)N[C@@H](CCCCN)C(=O)N[C@@H](CCCCN)C(=O)NCCCNC(=O)[C@H]1NC(=O)[C@H]2NC(=O)[C@H](NC(=O)[C@@H]3NC(=O)[C@H](CC(N)=O)NC(=O)[C@H](NC(=O)[C@@H](CC(C)C)NC)[C@H](O)c4ccc(c(Cl)c4)Oc4cc3cc(c4O[C@@H]3O[C@H](CO)[C@@H](O)[C@H](O)[C@H]3O[C@H]3C[C@](C)(N)[C@H](O)[C@H](C)O3)Oc3ccc(cc3Cl)[C@H]2O)c2ccc(O)c(c2)-c2c(O)cc(O)cc21 [MCC_005201]		xxxx (xxxx = 0.01-<0.1)	xx (xx = 1-4)	xxxx (xxxx = 0.01-<0.1)								xx (xx = 2-4)
CN[C@H](CC(C)C)C(=O)N[C@H]1C(=O)N[C@@H](CC(N)=O)C(=O)N[C@H]2C(=O)N[C@H]3C(=O)N[C@H](C(=O)N[C@H](C(=O)NCCCC[C@H](NC(=O)[C@H](CCCCN(C)C)NC(=O)c4ccc(Oc5ccccc5)cc4)C(=O)O)c4cc(O)cc(O)c4-c4cc3ccc4O)[C@H](O)c3ccc(c(Cl)c3)Oc3cc2cc(c3O[C@@H]2O[C@H](CO)[C@@H](O)[C@H](O)[C@H]2O[C@H]2C[C@](C)(N)[C@H](O)[C@H](C)O2)Oc2ccc(cc2Cl)[C@H]1O [MCC_007221]		xx (xx = 1-4)	x (x = >4)	xxx (xxx = 0.1-<1)								x (x = 0-2)
